Assay results taken from ChEMBL document CHEMBL5537166, “PROTACs Targeting BRM (SMARCA2) Afford Selective In Vivo Degradation over BRG1 (SMARCA4) and Are Active in BRG1 Mutant Xenograft Tumor Models” (J Med Chem, 2024).
The source made the active and inactive calls. No cut-off for these calls is given here.

Columns and labels:
Mus musculus [1] = experiment: In-vivo PROTAC activity at BRM/VHL in CD-1 mouse xenografted with Murine stromal cell line at 20 mg/kg, iv measured for 96 hrs; type: functional
[2] = Plasma protein binding in mouse incubated for 15 mins by LC-MS/MS analysis; type: ADME, cell-free; details: read-out: PPB (converted)
Mus musculus [3] = experiment: In-vivo PROTAC activity at BRM/VHL in CD-1 mouse xenografted with human HCC2302 cells assessed as reduction in BRM level in tumor at 20 mg/kg, iv administered twice weekly for 7 times for 21 days and measured after 24 hrs post dose by Western blot analysis; type: functional; design: scale not given: the % may be the effect or the level left; details: time 22 day
[4] = Half life in mouse at 1 mg/kg, iv measured upto 60 mins by LC-MS/MS analysis; type: ADME, organism-based; details: in vivo
[5] = Clearance in CD-1 mouse at 10 mg/kg, iv measured for 24 hrs; type: ADME, organism-based; details: in vivo
[6] = Half life in CD-1 mouse at 30 mg/kg, iv measured for 24 hrs; type: ADME, organism-based; details: in vivo
[7] = Drug concentration in mouse plasma measured for 24 hrs; type: ADME, cell-free
HCC2302 [8] = experiment: Antitumor activity against human BRM-dependent HCC2302 cells xenografted in CD-1 mouse assessed as suppression of PLAU mRNA level at 20 mg/kg, iv administered twice weekly for 7 times for 21 days and measured after 24 hrs post dose; type: functional; details: time 22 day
[9] = Toxicity in CD-1 mouse xenografted with BRM-dependent human HCC2302 cells assessed as body weight loss at 10 mg/kg, ip administered once daily for 7 days; type: organism-based; details: in vivo, 168 h, time 7 day
[10] = Drug concentration in mouse tumor at 20 mg/kg, ip measured for 96 hrs; type: ADME, organism-based, Neoplasm; details: read-out: Ct
HCC2302 [11] = experiment: Antitumor activity against human BRM-dependent HCC2302 cells xenografted in CD-1 mouse assessed as tumor growth inhibition at 10 mg/kg, iv administered twice per week for 21 days; type: functional, organism-based; details: time 21.0 day
Mus musculus [12] = experiment: In-vivo PROTAC activity at BRM/VHL in CD-1 mouse xenografted with human HCC2302 cells assessed as reduction in BRM level in tumor at 10 mg/kg, iv administered twice weekly for 7 times for 21 days and measured after 24 hrs post dose by Western blot analysis; type: functional; design: scale not given: the % may be the effect or the level left; details: time 22 day
Calu-6 = experiment: Antiproliferative activity against human Calu-6 cells assessed as growth inhibition incubated for 7 days by celltiter glo 2.0 assay; type: functional; details: Calu-6, 168 h, time 7 day
[13] = Toxicity in CD-1 mouse xenografted with BRM-dependent human HCC2302 cells assessed as body weight loss at 20 mg/kg, ip administered twice per week for 21 days; type: organism-based; details: in vivo, 504 h, time 21 day
Mus musculus [14] = experiment: In-vivo PROTAC activity at BRM/VHL in CD-1 mouse xenografted with human HCC2302 cells assessed as reduction in BRM level in tumor at 30 mg/kg, iv administered 7 times and measured after 96 hrs by Western blot analysis; type: functional; design: scale not given: the % may be the effect or the level left
Mus musculus [15] = experiment: In-vivo PROTAC activity at BRG1 /VHL in CD-1 mouse xenografted with human HCC2302 cells assessed as reduction in BRG1 level in tumor at 10 mg/kg, iv administered twice weekly for 7 times for 21 days and measured after 24 hrs post dose by Western blot analysis; type: functional; design: scale not given: the % may be the effect or the level left; details: time 22 day
[16] = AUClast in CD-1 mouse at 30 mg/kg, iv measured for 24 hrs; type: ADME, organism-based; details: in vivo
HCC2302 [17] = experiment: Antitumor activity against human BRM-dependent HCC2302 cells xenografted in CD-1 mouse assessed as suppression of KRT80 mRNA level at 20 mg/kg, iv administered twice weekly for 7 times for 21 days and measured after 24 hrs post dose; type: functional; details: time 22 day
[18] = Initial plasma concentration in CD-1 mouse at 10 mg/kg, iv measured for 24 hrs; type: ADME, organism-based
[19] = Volume of distribution in CD-1 mouse at 30 mg/kg, iv measured for 24 hrs; type: ADME, organism-based; details: in vivo
[20] = Half life in CD-1 mouse at 10 mg/kg, iv measured for 24 hrs; type: ADME, organism-based; details: in vivo
[21] = Clearance in CD-1 mouse at 30 mg/kg, iv measured for 24 hrs; type: ADME, organism-based; details: in vivo
HCC2302 [22] = experiment: Antitumor activity against human BRM-dependent HCC2302 cells xenografted in CD-1 mouse assessed as tumor growth inhibition at 30 mg/kg, iv administered 7 times and measured after 96 hrs; type: functional; details: read-out: TGI
HCC2302 [23] = experiment: Antitumor activity against human BRM-dependent HCC2302 cells xenografted in CD-1 mouse assessed as tumor growth inhibition at 20 mg/kg, iv administered twice weekly for 7 times for 21 days and measured after 24 hrs post dose; type: functional; details: HCC2302, 528 h, time 22 day, read-out: TGI
HCC2302 [24] = experiment: Antitumor activity against human BRM-dependent HCC2302 cells xenografted in CD-1 mouse assessed as suppression of KRT80 mRNA level at 10 mg/kg, iv administered twice weekly for 7 times for 21 days and measured after 24 hrs post dose; type: functional; details: time 22 day
HCC2302 [25] = experiment: Antitumor activity against human BRM-dependent HCC2302 cells xenografted in CD-1 mouse assessed as suppression of KRT80 mRNA level at 30 mg/kg, iv administered 7 times and measured after 96 hrs; type: functional
[26] = Volume of distribution in CD-1 mouse at 10 mg/kg, iv measured for 24 hrs; type: ADME, organism-based; details: in vivo
HCC2302 [27] = experiment: Antitumor activity against human BRM-dependent HCC2302 cells xenografted in CD-1 mouse assessed as suppression of PLAU mRNA level at 10 mg/kg, iv administered twice weekly for 7 times for 21 days and measured after 24 hrs post dose; type: functional; details: time 22 day
[28] = Initial plasma concentration in CD-1 mouse at 30 mg/kg, iv measured for 24 hrs; type: ADME, organism-based
HCC2302 [29] = experiment: Antitumor activity against human BRM-dependent HCC2302 cells xenografted in CD-1 mouse at 30 mg/kg, iv administered twice per week for 11 days; type: functional, organism-based; details: time 11.0 day
HCC2302 [30] = experiment: Antitumor activity against human BRM-dependent HCC2302 cells xenografted in CD-1 mouse assessed as suppression of PLAU mRNA level at 30 mg/kg, iv administered 7 times and measured after 96 hrs; type: functional
Mus musculus [31] = experiment: In-vivo PROTAC activity at BRG1 /VHL in CD-1 mouse xenografted with human HCC2302 cells assessed as reduction in BRG1 level in tumor at 30 mg/kg, iv administered 7 times and measured after 96 hrs by Western blot analysis; type: functional; design: scale not given: the % may be the effect or the level left
[32] = AUClast in CD-1 mouse at 10 mg/kg, iv measured for 24 hrs; type: ADME, organism-based; details: in vivo
HCC2302 [33] = experiment: Antitumor activity against human BRM-dependent HCC2302 cells xenografted in CD-1 mouse assessed as tumor growth inhibition at 20 mg/kg, ip administered twice per week for 21 days; type: functional, organism-based; details: time 21.0 day
Mus musculus [34] = experiment: In-vivo PROTAC activity at BRG1 /VHL in CD-1 mouse xenografted with human HCC2302 cells assessed as reduction in BRG1 level in tumor at 20 mg/kg, iv administered twice weekly for 7 times for 21 days and measured after 24 hrs post dose by Western blot analysis; type: functional; design: scale not given: the % may be the effect or the level left; details: time 22 day
NCI-H1944 = experiment: Antiproliferative activity against BRM-dependent human NCI-H1944 cells assessed as growth inhibition incubated for 7 days by celltiter glo 2.0 assay; type: functional; details: NCI-H1944, 168 h, time 7 day
[35] = Toxicity in CD-1 mouse xenografted with BRM-dependent human HCC2302 cells assessed as animal death at 10 mg/kg, ip administered once daily for 7 days; type: organism-based; details: in vivo, 168 h, time 7 day
[36] = Clearance in mouse at 1 mg/kg, iv measured upto 60 mins by LC-MS/MS analysis; type: ADME, organism-based; details: in vivo, 1 h
HCC2302 [37] = experiment: Antitumor activity against human BRM-dependent HCC2302 cells xenografted in CD-1 mouse assessed as tumor growth inhibition at 10 mg/kg, iv administered twice weekly for 7 times for 21 days and measured after 24 hrs post dose; type: functional; details: HCC2302, 528 h, time 22 day, read-out: TGI
Mus musculus [38] = experiment: In-vivo PROTAC activity at BRM/VHL in CD-1 mouse xenografted with human HCC2302 cells at 20 mg/kg, iv measured for 96 hrs; type: functional
[39] = Toxicity in CD-1 mouse xenografted with BRM-dependent human HCC2302 cells assessed as animal death at 10 to 30 mg/kg, ip measured at 9 to 13 days; type: organism-based; details: in vivo, dose lower 10 mg/kg, time lower 9 day, dose upper 30 mg/kg, time upper 13 day
SW1573 [40] = experiment: Induction of PATJ degradation in human SW1573 cells at 100 nM incubated for 8 hrs by proteomics analysis; type: cell-based
[41] = Toxicity in CD-1 mouse xenografted with BRM-dependent human HCC2302 cells assessed as animal survival at 10 mg/kg, ip measured at 15 days; type: organism-based; details: in vivo, 360 h, time 15 day
[42] = Toxicity in CD-1 mouse xenografted with BRM-dependent human HCC2302 cells assessed as tolerability at 10 mg/kg, ip measured at 15 days; type: organism-based; details: in vivo, 360 h, time 15 day
[43] = biological target: Urokinase-type plasminogen activator (Homo sapiens) (UniProt P00749); experiment: Induction of PLAU degradation in human SW1573 cells at 100 nM incubated for 8 hrs by proteomics analysis; type: cell-based
[44] = biological target: MAP kinase-activated protein kinase 3 (Homo sapiens) (UniProt Q16644); experiment: Induction of MAPKAPK3 degradation in human SW1573 cells at 100 nM incubated for 8 hrs by proteomics analysis; type: cell-based
MAP kinase-activated protein kinase 3 (Homo sapiens), sequence (Q16644 whole entry, looked up): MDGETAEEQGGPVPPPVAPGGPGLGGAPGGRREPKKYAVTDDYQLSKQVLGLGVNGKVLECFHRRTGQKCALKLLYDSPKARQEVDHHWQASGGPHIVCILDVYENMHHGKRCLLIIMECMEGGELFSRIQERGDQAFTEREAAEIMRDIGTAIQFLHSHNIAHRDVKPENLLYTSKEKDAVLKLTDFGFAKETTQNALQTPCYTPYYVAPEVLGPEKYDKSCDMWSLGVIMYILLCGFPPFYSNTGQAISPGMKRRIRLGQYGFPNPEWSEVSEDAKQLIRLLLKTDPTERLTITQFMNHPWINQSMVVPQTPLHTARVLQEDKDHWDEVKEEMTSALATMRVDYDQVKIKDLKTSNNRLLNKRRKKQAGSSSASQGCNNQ

HCC2302 [45] = experiment: Antitumor activity against human BRM-dependent HCC2302 cells xenografted in CD-1 mouse assessed as reduction in tumor growth at 10 to 30 mg/kg, ip administered once daily for 11 days; type: functional, organism-based; details: dose 10-30 mg/kg, time 11.0 day
SW1573 [46] = experiment: Induction of PALS1 degradation in human SW1573 cells at 100 nM incubated for 8 hrs by proteomics analysis; type: cell-based
[47] = biological target: Protein polybromo-1 (Homo sapiens) (UniProt Q86U86); experiment: Induction of PBRM1 degradation in human SW1573 cells at 100 nM incubated for 8 hrs by proteomics analysis; type: cell-based
Protein polybromo-1 (Homo sapiens), sequence (Q86U86 whole entry): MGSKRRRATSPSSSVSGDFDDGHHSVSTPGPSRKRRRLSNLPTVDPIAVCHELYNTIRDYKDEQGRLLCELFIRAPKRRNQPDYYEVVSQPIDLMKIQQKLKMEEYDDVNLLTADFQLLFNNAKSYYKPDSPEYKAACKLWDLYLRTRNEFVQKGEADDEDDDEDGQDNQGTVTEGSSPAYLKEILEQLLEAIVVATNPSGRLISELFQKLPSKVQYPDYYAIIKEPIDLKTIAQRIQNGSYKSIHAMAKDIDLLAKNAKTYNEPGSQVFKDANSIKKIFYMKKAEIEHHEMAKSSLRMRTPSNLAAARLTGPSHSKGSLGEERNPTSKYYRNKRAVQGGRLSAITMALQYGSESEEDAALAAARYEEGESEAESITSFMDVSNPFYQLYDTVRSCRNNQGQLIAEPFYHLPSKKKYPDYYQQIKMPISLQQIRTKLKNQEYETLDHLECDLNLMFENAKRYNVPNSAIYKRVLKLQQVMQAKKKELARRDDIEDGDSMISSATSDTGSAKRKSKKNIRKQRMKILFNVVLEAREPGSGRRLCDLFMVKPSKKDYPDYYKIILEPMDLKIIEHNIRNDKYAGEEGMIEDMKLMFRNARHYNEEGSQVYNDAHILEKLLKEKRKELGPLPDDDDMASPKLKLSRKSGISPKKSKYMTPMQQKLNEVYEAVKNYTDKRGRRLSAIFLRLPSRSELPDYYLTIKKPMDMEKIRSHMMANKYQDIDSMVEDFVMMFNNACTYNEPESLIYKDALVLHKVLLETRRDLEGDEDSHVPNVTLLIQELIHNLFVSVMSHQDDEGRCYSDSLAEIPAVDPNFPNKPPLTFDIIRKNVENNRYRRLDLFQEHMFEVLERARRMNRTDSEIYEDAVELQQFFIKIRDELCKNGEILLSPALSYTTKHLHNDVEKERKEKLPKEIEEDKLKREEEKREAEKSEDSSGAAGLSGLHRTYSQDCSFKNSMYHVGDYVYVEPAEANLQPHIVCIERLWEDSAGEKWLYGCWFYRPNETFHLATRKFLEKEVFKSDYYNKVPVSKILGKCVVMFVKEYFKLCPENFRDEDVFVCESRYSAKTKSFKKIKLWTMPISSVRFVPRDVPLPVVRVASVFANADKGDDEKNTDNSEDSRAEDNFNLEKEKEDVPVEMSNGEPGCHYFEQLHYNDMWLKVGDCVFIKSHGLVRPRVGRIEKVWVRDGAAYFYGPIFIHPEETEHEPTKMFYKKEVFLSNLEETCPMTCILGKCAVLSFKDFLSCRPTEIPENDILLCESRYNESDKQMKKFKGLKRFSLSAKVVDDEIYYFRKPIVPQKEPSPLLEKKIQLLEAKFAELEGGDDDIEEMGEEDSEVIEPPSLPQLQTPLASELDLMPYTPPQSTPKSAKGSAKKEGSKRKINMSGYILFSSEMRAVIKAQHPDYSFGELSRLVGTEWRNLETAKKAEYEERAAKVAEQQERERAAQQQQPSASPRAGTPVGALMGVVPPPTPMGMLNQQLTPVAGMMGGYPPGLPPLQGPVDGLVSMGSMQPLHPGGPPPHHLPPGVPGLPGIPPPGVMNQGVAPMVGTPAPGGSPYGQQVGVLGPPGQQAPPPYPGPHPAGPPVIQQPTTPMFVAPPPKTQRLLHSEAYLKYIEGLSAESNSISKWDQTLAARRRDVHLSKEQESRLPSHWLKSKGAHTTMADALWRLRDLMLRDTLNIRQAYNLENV

[48] = Toxicity in CD-1 mouse xenografted with BRM-dependent human HCC2302 cells assessed as body weight loss at 10 to 30 mg/kg, ip administered once daily for 11 days; type: organism-based; details: in vivo, 264 h, dose 10-30 mg/kg, time 11 day

Compound: Cc1ncsc1-c1ccc([C@H](C)NC(=O)[C@@H]2C[C@@H](O)CN2C(=O)[C@@H](c2cc(N3CCC(CN4CCC(O[C@H]5C[C@H](Oc6cc(N7C8CCC7CN(c7cc(-c9ccccc9O)nnc7N)C8)ccn6)C5)CC4)CC3)no2)C(C)C)cc1
- Activity (Mus musculus [1]): 22%
- fraction unbound at 0.25 h [2]: 0.048
- Activity (Mus musculus [3]): 99%
- half-life [4]: 16 h
- clearance [5]: 16 mL/min/kg
- half-life [6]: 8.9 h
- concentration at 24 h [7]: 71 nM
- Activity (HCC2302 [8]): 98%
- Activity [9]: Non-Toxic
- concentration at 96 h [10]: 483 ng/g
- TGI (HCC2302 [11]): inactive
- Activity (Mus musculus [12]): 81%
- GI50 (Calu-6): 6.5 nM
- Activity [13]: Non-Toxic
- Activity (Mus musculus [14]): 97%
- Activity (Mus musculus [15]): 30%
- AUC(0-t) at 24 h [16]: 30800 ng·h/mL
- Activity (HCC2302 [17]): 71%
- C0 at 24 h [18]: 12600 ng/mL
- Vd [19]: 8.7 L/kg
- half-life [20]: 6.6 h
- clearance [21]: 15 mL/min/kg
- inhibition in vivo at 30 mg/kg (HCC2302 [22]): > 65%
- inhibition in vivo at 20 mg/kg (HCC2302 [23]): 62%
- Activity (HCC2302 [24]): 25%
- Activity (HCC2302 [25]): 72%
- Vd [26]: 6.3 L/kg
- Activity (HCC2302 [27]): 91%
- C0 at 24 h [28]: 58000 ng/mL
- Activity (HCC2302 [29]): Active
- Activity (HCC2302 [30]): 97%
- Activity (Mus musculus [31]): 84%
- AUC(0-t) at 24 h [32]: 10200 ng·h/mL
- TGI (HCC2302 [33]): Active
- Activity (Mus musculus [34]): 47%
- GI50 (NCI-H1944): 0.58 nM
- Activity [35]: Non-Toxic
- clearance [36]: 9.6 mL/min/kg
- inhibition in vivo at 10 mg/kg (HCC2302 [37]): 1%
- Activity (Mus musculus [38]): 82%

Compound: Cc1ncsc1-c1ccc([C@H](C)NC(=O)[C@@H]2C[C@@H](O)CN2C(=O)[C@@H](c2cc(OCCN3CCC(O[C@H]4C[C@H](Oc5cc(N6C7CCC6CN(c6cc(-c8ccccc8O)nnc6N)C7)ccn5)C4)CC3)no2)C(C)C)cc1
- Activity (Mus musculus [1]): 4%
- fraction unbound at 0.25 h [2]: 0.027
- half-life [4]: 2.6 h
- Activity [39]: Toxic
- Activity (SW1573 [40]): Active
- concentration at 24 h [7]: 26 nM
- Activity [41]: Non-Toxic
- concentration at 96 h [10]: 158 ng/g
- Activity [42]: Non-Toxic
- Activity [43]: Active
- GI50 (Calu-6): 24 nM
- Activity [44]: Active
- Activity (HCC2302 [45]): Active
- Activity (SW1573 [46]): Active
- Activity [47]: Active
- Activity [48]: Toxic
- GI50 (NCI-H1944): 0.64 nM
- clearance [36]: 22 mL/min/kg
- Activity (Mus musculus [38]): 64%
